Source: patent publication US20230114241A1, “METHODS OF TREATING EPILEPSY USING THE SAME” (Trevena, Inc., priority 2019, published 2023)

Tests used:
[1] = target: T1, human sphingosine-1-phosphate receptor 1 (S1P1) (Homo sapiens, UniProt P21453); assay: Inhibition of cAMP production (HTRF cAMP HiRange), S1P1 CHO-K1 cells; assay type: cell-based; conditions: for Emax: CHO-K1, efficacy normalized to maximum efficacy of fingolimod, read-out: hS1P1 CAMP SPAN; for EC50: read-out: hS1P1 CAMP pEC50 (converted)
In short: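 CHO-K1 cells co-expressing human S1P1 (C-terminal ProLink tag) and EA-β-arrestin2, plated overnight; after 30 min compound incubation at 37 °C, intracellular cAMP measured by HTRF TR-FRET following 1 h at room temperature. Values normalized to fingolimod.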
Target sequence in this assay (P21453 whole entry): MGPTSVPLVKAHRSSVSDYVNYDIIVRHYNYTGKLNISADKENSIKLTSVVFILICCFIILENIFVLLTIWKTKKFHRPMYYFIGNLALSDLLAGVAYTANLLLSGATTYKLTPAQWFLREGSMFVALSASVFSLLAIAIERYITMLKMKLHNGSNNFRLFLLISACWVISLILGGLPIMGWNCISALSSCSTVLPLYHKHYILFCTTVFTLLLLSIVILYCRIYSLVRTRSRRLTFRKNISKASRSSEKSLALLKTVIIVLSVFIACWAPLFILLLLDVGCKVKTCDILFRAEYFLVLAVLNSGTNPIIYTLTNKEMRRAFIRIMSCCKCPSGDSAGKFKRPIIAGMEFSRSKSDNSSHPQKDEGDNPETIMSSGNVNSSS

[2] = target: T1, human sphingosine-1-phosphate receptor 1 (S1P1); assay: β-Arrestin2 recruitment assay (PathHunter), S1P1 CHO-K1 cells; assay type: cell-based; conditions: for Emax: efficacy normalized to maximum efficacy of fingolimod, read-out: hS1P1 B-arrestin2 SPAN; for EC50: β-arrestin2 recruitment, read-out: hS1P1 B-arrestin2 pEC50 (converted)
In short: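 CHO-K1 cells co-expressing EA-β-arrestin2 and ProLink-tagged human S1P1 plated overnight, then stimulated 60 min at 37 °C. Enzyme-fragment complementation (β-galactosidase) detected after 1 h at room temperature by luminescence; values normalized to fingolimod.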
Target sequence in this assay (P21453 whole entry): as above
Target sequence in this assay (P32121 whole entry partner): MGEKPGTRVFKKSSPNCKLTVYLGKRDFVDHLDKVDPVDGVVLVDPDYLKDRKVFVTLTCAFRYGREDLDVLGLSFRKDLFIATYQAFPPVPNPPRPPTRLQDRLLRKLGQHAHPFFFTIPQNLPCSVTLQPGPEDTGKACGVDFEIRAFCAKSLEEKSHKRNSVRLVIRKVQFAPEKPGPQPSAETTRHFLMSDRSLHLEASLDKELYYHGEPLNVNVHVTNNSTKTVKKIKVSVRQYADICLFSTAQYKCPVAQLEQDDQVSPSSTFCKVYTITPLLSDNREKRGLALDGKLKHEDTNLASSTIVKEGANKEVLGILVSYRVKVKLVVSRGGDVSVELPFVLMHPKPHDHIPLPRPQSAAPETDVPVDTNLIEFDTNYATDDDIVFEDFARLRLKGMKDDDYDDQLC

[3] = inhibition of cAMP production, S1P1
[4] = inhibition of cAMP production, potency
[5] = CHO-K1, β-arrestin2 recruitment

In the case of `Cc1ccccc1-c1cc(-c2ccc3c(c2)nnn3C(C)C)c[nH]1` [Compound 601, 5-[5-(2-methylphenyl)-1H-pyrrol-3-yl]-1-(propan-2-yl)-1H-1,2,3-benzotriazole], the Emax [1] is reported as greater than 75%, the EC50 [1, 3] is reported as greater than 316 nM and the Emax ([2]; CHO-K1) is reported as less than 75%. The EC50 ([2]; S1P1) was less than 10000 nM.
`CCC1(CC)CC(=O)c2cc(-c3nc(-c4ccncn4)no3)ccc2O1` [Compound 639, 2,2-diethyl-6-(3-(pyrimidin-4-yl)-1,2,4-oxadiazol-5-yl)chroman-4-one] showed an Emax [1] of less than 75%, an EC50 [1, 3] greater than 316 nM and an Emax ([2]; CHO-K1) greater than 75%. The EC50 ([2]; S1P1) was greater than 10000 nM.
Compound `CCC1(CC)CC(=O)c2cc(-c3ncc(-c4ccncc4)cn3)ccc2O1` [Compound 510, 2,2-diethyl-6-(5-(pyridin-4-yl)pyrimidin-2-yl)chroman-4-one] has an Emax [1] of less than 75%, an EC50 [1, 3] of less than 316 nM and an Emax ([2]; CHO-K1) greater than 75%. The EC50 ([2]; S1P1) was less than 10000 nM.
Work on `CC(C)Nc1ccc(-c2nc(-c3ccc4c(c3)CCNC4=O)no2)cc1C#N` [Compound 442, 2-(isopropylamino)-5-(3-(1-oxo-1,2,3,4-tetrahydroisoquinolin-6-yl)-1,2,4-oxadiazol-5-yl)benzonitrile] yielded an Emax [1] greater than 75%, an EC50 [1, 3] of less than 316 nM and an Emax ([2]; CHO-K1) greater than 75%. For the same compound, the EC50 ([2]; S1P1) was less than 10000 nM.
`Cc1ccc(-c2nc(-c3ccc4c(c3)nnn4C(C)C)no2)c(C)c1` [Compound 166, 5-(2,4-dimethylphenyl)-3-(1-isopropyl-1H-benzo[d][1,2,3]triazol-5-yl)-1,2,4-oxadiazole] was tested, and the Emax ([1]; inhibition of cAMP production) was less than 75%, the EC50 [1, 4] was greater than 316 nM and the Emax [2, 5] was greater than 75%. The EC50 ([2]; potency) was greater than 10000 nM.
`CC(C)(CO)n1nnc2cc(-c3noc(-c4ccc5nc[nH]c5c4)n3)ccc21` [Compound 642, 2-(5-(5-(1H-benzo[d]imidazol-6-yl)-1,2,4-oxadiazol-3-yl)-1H-benzo[d][1,2,3]triazol-1-yl)-2-methylpropan-1-ol] was tested, and the Emax [1] was less than 75%, the EC50 [1, 3] was greater than 316 nM and the Emax ([2]; CHO-K1) was less than 75%.
Compound `CCCn1nnc2cc(-c3nc(-c4cccc(C)c4)no3)ccc21` [Compound 54, 5-[3-(3-methylphenyl)-1,2,4-oxadiazol-5-yl]-1-propyl-1H-1,2,3-benzotriazole] has an Emax ([1]; inhibition of cAMP production) of less than 75%, an EC50 [1, 4] greater than 316 nM and an Emax [2, 5] greater than 75%. It also gave an EC50 ([2]; potency) greater than 10000 nM.
For `CCC1(CC)CC(=O)c2cc(-c3nc(-c4ccc5c(c4)nnn5C(C)C)ns3)ccc2O1` [Compound 29, 2,2-diethyl-6-(3-(1-isopropyl-1H-benzo[d][1,2,3]triazol-5-yl)-1,2,4-thiadiazol-5-yl)chroman-4-one], the Emax ([1]; inhibition of cAMP production) was less than 75%, the EC50 [1, 4] was greater than 316 nM and the Emax [2, 5] was less than 75%. For the same compound, the EC50 ([2]; potency) was greater than 10000 nM.
`CC(C)C(c1ccccc1)c1noc(-c2ccc3c(c2)nnn3C(C)C)n1` (stereo not drawn) [Compound 56, 5-[3-(2-methyl-1-phenyl-propyl)-1,2,4-oxadiazol-5-yl]-1-(propan-2-yl)-1H-1,2,3-benzotriazole] gave an Emax ([1]; inhibition of cAMP production) of less than 75%, an EC50 [1, 4] greater than 316 nM and an Emax [2, 5] of less than 75%. The EC50 ([2]; potency) was greater than 10000 nM.
`CC(C)n1ccc2cc(-c3noc(-c4ccccc4Br)n3)ccc21` [Compound 388, 5-(2-bromophenyl)-3-(1-isopropyl-1H-indol-5-yl)-1,2,4-oxadiazole] was tested, and the Emax [1] was greater than 75%, the EC50 [1, 3] was less than 316 nM and the Emax ([2]; CHO-K1) was greater than 75%. For the same compound, the EC50 ([2]; S1P1) was less than 10000 nM.
`N#Cc1cc(-c2nnc(-c3ccc4c(c3)CCC(=O)N4)o2)ccc1NCCF` [Compound 476, 2-[(2-fluoroethyl)amino]-5-[5-(2-oxo-1,2,3,4-tetrahydroquinolin-6-yl)-1,3,4-oxadiazol-2-yl]benzonitrile] showed an Emax [1] greater than 75%, an EC50 [1, 3] of less than 316 nM and an Emax ([2]; CHO-K1) of less than 75%. For the same compound, the EC50 ([2]; S1P1) was less than 10000 nM.
`COc1cnc(-c2nc(-c3ccc4c(c3)nnn4C(C)C)no2)cn1` [Compound 51, 3-(1-isopropyl-1H-benzo[d][1,2,3]triazol-5-yl)-5-(5-methoxypyrazin-2-yl)-1,2,4-oxadiazole] gave an Emax ([1]; inhibition of cAMP production) of less than 75%, an EC50 [1, 4] greater than 316 nM and an Emax [2, 5] of less than 75%. The EC50 ([2]; potency) was greater than 10000 nM.
`CC(C)n1nnc2cc(-c3nc(-c4sccc4Cl)co3)ccc21` [Compound 463, 5-[4-(3-chlorothiophen-2-yl)-1,3-oxazol-2-yl]-1-(propan-2-yl)-1H-1,2,3-benzotriazole] gave an Emax [1] greater than 75%, an EC50 [1, 3] of less than 316 nM and an Emax ([2]; CHO-K1) greater than 75%. For the same compound, the EC50 ([2]; S1P1) was less than 10000 nM.
In the case of `CC(C)Cn1nnc2cc(-c3nc4c(Cl)cccc4o3)ccc21` [Compound 453, 4-chloro-2-(1-isobutyl-1H-benzo[d][1,2,3]triazol-5-yl)benzo[d]oxazole], the Emax [1] is reported as greater than 75%, the EC50 [1, 3] is reported as less than 316 nM and the Emax ([2]; CHO-K1) is reported as less than 75%.
`Cc1ccccc1-c1nsc(-c2ccc3c(ccn3C(C)C)c2)n1` [Compound 381, 5-[3-(2-methylphenyl)-1,2,4-thiadiazol-5-yl]-1-(propan-2-yl)-1H-indole] was tested, and the Emax [1] was less than 75%, the EC50 [1, 3] was greater than 316 nM and the Emax ([2]; CHO-K1) was less than 75%. The EC50 ([2]; S1P1) was less than 10000 nM.
For `Cc1cccc2oc(-c3ccc4c(c3)nnn4CC(C)C)nc12` [Compound 447, 2-(1-isobutyl-1H-benzo[d][1,2,3]triazol-5-yl)-4-methyl-benzo[d]oxazole], the Emax [1] was greater than 75%, the EC50 [1, 3] was less than 316 nM and the Emax ([2]; CHO-K1) was less than 75%. It also gave an EC50 ([2]; S1P1) of less than 10000 nM.
In the case of `CC(C)Nc1ccc(-c2nnc(-c3ccc4c(c3)CCC(=O)N4)o2)cc1C#N` [Compound 473, 5-[5-(2-oxo-1,2,3,4-tetrahydroquinolin-6-yl)-1,3,4-oxadiazol-2-yl]-2-[(propan-2-yl)amino]benzonitrile], the Emax [1] is reported as greater than 75%, the EC50 [1, 3] is reported as less than 316 nM and the Emax ([2]; CHO-K1) is reported as greater than 75%. For the same compound, the EC50 ([2]; S1P1) was less than 10000 nM.
For `Cc1ccccc1-c1nc(-c2ccc3c(c2)nnn3CC(C)(C)CO)no1` [Compound 505, 2,2-dimethyl-3-(5-(5-(o-tolyl)-1,2,4-oxadiazol-3-yl)-1H-benzo[d][1,2,3]triazol-1-yl)propan-1-ol], the Emax [1] was less than 75%, the EC50 [1, 3] was greater than 316 nM and the Emax ([2]; CHO-K1) was greater than 75%. For the same compound, the EC50 ([2]; S1P1) was greater than 10000 nM.
With `Cc1ccccc1-c1csc(-c2cnc3c(ccn3C(C)C)c2)n1` [Compound 407, 2-(1-isopropyl-pyrrolo[2,3-b]pyridin-5-yl)-4-(o-tolyl)thiazole] the Emax [1] was greater than 75%, the EC50 [1, 3] was greater than 316 nM and the Emax ([2]; CHO-K1) was less than 75%. For the same compound, the EC50 ([2]; S1P1) was greater than 10000 nM.
Work on `Cc1ccncc1-c1noc(-c2ccc3c(c2)NC(=O)CN3)n1` [Compound 613, 7-[3-(4-methylpyridin-3-yl)-1,2,4-oxadiazol-5-yl]-1,2,3,4-tetra-hydroquinoxalin-2-one] yielded an Emax [1] of less than 75%, an EC50 [1, 3] greater than 316 nM and an Emax ([2]; CHO-K1) of less than 75%. For the same compound, the EC50 ([2]; S1P1) was greater than 10000 nM.
`Fc1cc(-c2noc(-c3ccc4c(c3)nnn4C3CCCC3)n2)ccc1C(F)(F)F` [Compound 1, 1-cyclopentyl-5-{3-[3-fluoro-4-(trifluoro-methyl)phenyl]-1,2,4-oxadiazol-5-yl}-1H-1,2,3-benzotriazole] was tested, and the Emax ([1]; inhibition of cAMP production) was less than 75%, the EC50 [1, 4] was greater than 316 nM and the Emax [2, 5] was less than 75%. For the same compound, the EC50 ([2]; potency) was greater than 10000 nM.
`Cc1ccccc1-c1nc(-c2ccc3c(c2)nnn3C2CCCC2)no1` [Compound 162, 3-(1-cyclopentyl-1H-benzo[d][1,2,3]triazol-5-yl)-5-(o-tolyl)-1,2,4-oxadiazole] was tested, and the Emax ([1]; inhibition of cAMP production) was greater than 75%, the EC50 [1, 4] was greater than 316 nM and the Emax [2, 5] was greater than 75%. For the same compound, the EC50 ([2]; potency) was less than 10000 nM.
Compound `CCC1(CC)CC(=O)c2cc(-c3nc(-c4cncc(S(N)(=O)=O)c4)no3)ccc2O1` [Compound 603, 5-(5-(2,2-diethyl-4-oxochroman-6-yl)-1,2,4-oxadiazol-3-yl)pyridine-3-sulfonamide] has an Emax [1] greater than 75%, an EC50 [1, 3] of less than 316 nM and an Emax ([2]; CHO-K1) greater than 75%. It also gave an EC50 ([2]; S1P1) of less than 10000 nM.
With `O=C1c2cc(-c3nc(-c4cccnc4)no3)ccc2OC(CO)(CO)C1Br` (stereo not drawn) [Compound 479, 3-bromo-2,2-bis(hydroxy-methyl)-6-[3-(pyridin-3-yl)-1,2,4-oxadiazol-5-yl]-3,4-dihydro-2H-1-benzopyran-4-one] the Emax [1] was less than 75%, the EC50 [1, 3] was greater than 316 nM and the Emax ([2]; CHO-K1) was less than 75%. The EC50 ([2]; S1P1) was greater than 10000 nM.
With `COc1cccc(F)c1-c1noc(-c2ccc3c(ccn3C(C)C)c2)n1` [Compound 328, 3-(2-fluoro-6-methoxy-phenyl)-5-(1-isopropyl-indol-5-yl)-1,2,4-oxadiazole] the Emax ([1]; inhibition of cAMP production) was greater than 75%, the EC50 [1, 4] was greater than 316 nM and the Emax [2, 5] was greater than 75%. The EC50 ([2]; potency) was less than 10000 nM.
With `CC(C)n1nnc2cc(-c3nc(-c4ccccc4O)no3)ccc21` [Compound 180, 2-(5-(1-isopropyl-1H-benzo[d][1,2,3]triazol-5-yl)-1,2,4-oxadiazol-3-yl)phenol] the Emax ([1]; inhibition of cAMP production) was greater than 75%, the EC50 [1, 4] was greater than 316 nM and the Emax [2, 5] was greater than 75%. For the same compound, the EC50 ([2]; potency) was greater than 10000 nM.
`CCC1(CC)CC(=O)c2cc(-c3nc(-c4cccs4)no3)ccc2N1` [Compound 591, 2,2-diethyl-6-(3-(thiophen-2-yl)-1,2,4-oxadiazol-5-yl)-2,3-dihydroquinolin-4(1H)-one] gave an Emax [1] of less than 75%, an EC50 [1, 3] of less than 316 nM and an Emax ([2]; CHO-K1) greater than 75%. For the same compound, the EC50 ([2]; S1P1) was less than 10000 nM.
`CCC1(CC)CC(=O)c2cc(-c3nc(-c4ccnc(C(=O)NC)c4)no3)ccc2O1` [Compound 592, 4-(5-(2,2-diethyl-4-oxochroman-6-yl)-1,2,4-oxadiazol-3-yl)-N-methylpicolinamide] gave an Emax [1] of less than 75%, an EC50 [1, 3] greater than 316 nM and an Emax ([2]; CHO-K1) greater than 75%. For the same compound, the EC50 ([2]; S1P1) was greater than 10000 nM.
With `CCC1(CC)CC(=O)c2cc(-c3nc(-c4ccccc4OC)ns3)ccc2O1` [Compound 257, 2,2-diethyl-6-(3-(2-methoxyphenyl)-1,2,4-thiadiazol-5-yl)chroman-4-one] the Emax ([1]; inhibition of cAMP production) was greater than 75%, the EC50 [1, 4] was greater than 316 nM and the Emax [2, 5] was less than 75%. The EC50 ([2]; potency) was greater than 10000 nM.
